Assay [1] deals with Beta-2 adrenergic receptor (Cavia porcellus, UniProt Q8K4Z4).
Description: Agonist activity at adrenergic beta2 receptor in guinea pig trachea assessed as relaxation of carbachol-induced tissue contraction
In assay [2] the target is T1, Mu-type opioid receptor (Homo sapiens, UniProt P35372). The experiment in a line: Antagonist activity at human recombinant mu opioid receptor expressed in AequoScreen cells assessed as aequorin-derived receptor-mediated changes in intracellular calcium levels. In kind it is functional, cell-based. For orientation: Calcium assays in cells follow changes in intracellular calcium, usually with a dye or a luminescent sensor.
T1 sequence (P35372 whole entry): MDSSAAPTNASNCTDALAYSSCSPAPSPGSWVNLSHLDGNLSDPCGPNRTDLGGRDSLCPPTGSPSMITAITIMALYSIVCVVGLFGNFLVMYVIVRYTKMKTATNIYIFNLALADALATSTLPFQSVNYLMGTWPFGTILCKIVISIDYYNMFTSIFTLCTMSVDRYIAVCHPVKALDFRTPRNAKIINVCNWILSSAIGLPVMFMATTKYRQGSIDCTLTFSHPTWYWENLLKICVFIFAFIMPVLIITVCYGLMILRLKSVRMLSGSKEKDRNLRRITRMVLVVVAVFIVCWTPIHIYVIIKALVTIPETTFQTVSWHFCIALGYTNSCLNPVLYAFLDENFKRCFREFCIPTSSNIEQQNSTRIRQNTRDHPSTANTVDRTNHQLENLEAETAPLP

Assay [3] deals with T1, Mu-type opioid receptor. The experiment in a line: Displacement of [3H]DAMGO from human recombinant mu opioid receptor expressed in HEK293 cells by scintillation counting. It counts as cell-based. In general terms: Displacement assays read how much labelled ligand stays bound in the presence of the test substance.
Assay [4] deals with T1, Mu-type opioid receptor. The experiment in a line: Agonist activity at human recombinant mu opioid receptor expressed in AequoScreen cells assessed as aequorin-derived receptor-mediated changes in intracellular calcium levels. In kind it is functional, cell-based.

Counter-ions that a name gives are not always drawn. Activity calls are given as the source filed them. No cut-off for these calls is given here. Some results are limits rather than exact numbers.

In general, EC50 refers to the concentration that produces a half-maximal response. Low readings indicate a more potent agent, high ones a less potent agent. The term IC50 denotes the concentration that gives 50% inhibition. What is called Ki is a dissociation constant, usually derived from enzyme kinetics or from competition with a known ligand. A word on the Emax: it is the greatest response seen or fitted, relative to the assay's reference.

Beta-2 adrenergic receptor, sequence (Q8K4Z4 whole entry): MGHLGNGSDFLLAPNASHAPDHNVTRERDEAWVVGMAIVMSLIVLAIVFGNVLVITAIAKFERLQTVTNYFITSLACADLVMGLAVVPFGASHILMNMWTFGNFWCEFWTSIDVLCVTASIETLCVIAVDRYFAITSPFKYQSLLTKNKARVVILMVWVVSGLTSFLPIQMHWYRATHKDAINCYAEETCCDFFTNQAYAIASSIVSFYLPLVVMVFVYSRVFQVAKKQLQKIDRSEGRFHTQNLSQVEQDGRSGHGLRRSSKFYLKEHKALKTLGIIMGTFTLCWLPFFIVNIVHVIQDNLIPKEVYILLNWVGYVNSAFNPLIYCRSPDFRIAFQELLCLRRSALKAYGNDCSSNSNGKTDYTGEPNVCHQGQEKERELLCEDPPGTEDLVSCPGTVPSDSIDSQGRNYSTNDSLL

As to `CC(C)(C)NCC(O)c1cc(Cl)c(N)c(Cl)c1` (racemic) [CLENBUTEROL], the EC50 in assay [1] was 0.013 µM.

As to `CC(C)N[C@@H]1CCn2c(=O)[nH]c3cccc(c32)[C@H]1O` (racemic) [ZILPATEROL HYDROCHLORIDE], on Mu-type opioid receptor [2], the IC50 stood at 300 µM. For the same compound, on Mu-type opioid receptor [3], the IC50 came out at 31 µM and the Ki was found to be 13 µM.

Regarding `CC(C)N[C@@H]1CCn2c(=O)[nH]c3cccc(c32)[C@H]1O`, the outcome on Mu-type opioid receptor [4] was inactive.

Regarding `CC(C)N[C@@H]1CCn2c(=O)[nH]c3cccc(c32)[C@H]1O` (racemic), the Emax on Mu-type opioid receptor [2] is 93%. Besides, the outcome at Mu-type opioid receptor [4] was inactive.

Turning to `CC(C)N[C@@H]1CCn2c(=O)[nH]c3cccc(c32)[C@H]1O` [ZILPATEROL HYDROCHLORIDE], on Mu-type opioid receptor [2], the IC50 is > 1000 µM.

Take `CC(C)N[C@H]1CCn2c(=O)[nH]c3cccc(c32)[C@@H]1O`: on Mu-type opioid receptor [2], the Emax was 96% and the IC50 is 140 µM. For the same compound, at Mu-type opioid receptor [4], the outcome was inactive.

These data come from ChEMBL document CHEMBL1152790, “Synthesis and pharmacological characterization of beta2-adrenergic agonist enantiomers: zilpaterol” (J Med Chem, 2009).
